# Assay results taken from publication PMC9229949 (Pharmaceutics, 2022).
# Where two headings read alike, the source gives them in different places.
# Columns and labels:
# [1] = tested on: β-hematin formation from Fe(III)PPIX (hematin); test: β-hematin inhibition activity, oxidizing conditions (O-BHIA, hematin); assay type: biochemical; details: 18 h incubation; median ± S.E.M. of three experiments; free bases; read-out: β-Hematin Inhibitory Activity (BHIA) O-BHIA (Hematin), IC50
# Description: (§1) A hemin chloride (10 μL of 4 mM stock in 80% DMSO) aliquot was dispensed in a U bottom 96-well microplate, and then, 10 μL of 0.1 M NaOH (O-BHIA) or 4 mM reduced glutathione in PBS at pH 7.0 (R-BHIA) was added, and plates were sealed and incubated at 37 °C for 2 h. After this, 10 μL of the drug dissolved in DMSO was added and incubated for 2 h, followed by the addition of 180 μL of sodium acetate buffer (1.0 M, pH 5.2) and 10 μL of nonionic detergent IGEPAL-CA-630 solution in methanol (10 mg/mL). Plates were sealed and incubated at 37 °C for 18 h. […] The reaction was stopped by the addition of 50 μL of a sodium dodecyl sulfate solution (5.0% v/v in 0.1 M bicarbonate buffer at pH 9.0). Plates were centrifuged at 3700 rpm for 5 min, and 100 μL of supernatant was placed in a separate plate. […] Two independent experiments were performed, and each drug concentration was tested in quadruplicate concentrations.
# [2] = tested on: β-hematin formation from Fe(II)PPIX (heme); test: β-hematin inhibition activity, reducing conditions (R-BHIA, heme); assay type: biochemical; details: 18 h incubation; median ± S.E.M. of three experiments; free bases; read-out: β-Hematin Inhibitory Activity (BHIA) R-BHIA (Heme), IC50
# Description: as §1
# [3] = Interaction with reduced glutathione (GSH) by monochlorobimane fluorescence assay; details: 2 h incubation, 10 to 0.3 drug:GSH molar ratio
# Description: Ten microliters per well of a solution of 2.0 mM reduced glutathione (Sigma-Aldrich, St. Louis, MO, USA, dissolved in PBS pH 7.2) was distributed in a 96-well microplate containing 170 μL/well of DMSO/PBS (1:1; v/v). Stock solutions of compounds were diluted in DMSO, and 10 μL was added in quadruplicate in the respective wells to a final concentration of 0.015 to 0.5 mM. […] After 1 h incubation at room temperature, fluorescence was recorded (λex = 360 nm, λem = 440 nm). Blank subtraction was performed prior to monochlorobimane addition, and controls included untreated wells (no drug) and no GSH. The results were expressed as a percentage of inhibition of GSH binding to monochlorobimane in comparison to control without compound. At least two independent experiments were performed.
# [4] = tested on: β-hematin formation; test: β-hematin formation inhibition by infrared spectroscopy; assay type: biochemical; parameters: key: Yes indicates β-hematin inhibition; No indicates β-hematin formation; details: 3:1 ratio of drug:hematin, qualitative by infrared
# Description: The conversion of hemin to β-hematin was determined by infrared (IR) spectroscopy as described by Egan et al.. […] Then, 0.3 mL of 0.1 M HCl and 1.7 mL of sodium acetate buffer ([…], pH 5) were added at the same temperature. […] The solid was dried and IR spectra were obtained using attenuated total reflection (ATR) using chloroquine as a positive control.
# [5] = tested on: P. falciparum W2 (CQ-resistant) asexual blood stages; test: In vitro activity against asexual blood stages of P. falciparum, CQ-resistant strain W2 (HRP2 ELISA); assay type: cell-based; details: Plasmodium falciparum, read-out: P. falciparum, IC50 ± S.E.M., CQ-Resistant W2
# Description: (§2) The plates were incubated for 72 h at 37 °C in controlled atmosphere. After frozen and thawing the plates, hemolyzed cultures were homogenized by vortexing the plates. The antiparasitic activity was determined using the HRP2 ELISA-based assay Malaria Ag Celisa kit (ref KM2159, Cellabs PTY LDT, Brookvale, Australia). […] IC50s are expressed as means of three to five experiments.
# [6] = tested on: P. falciparum 3D7 (CQ-susceptible) asexual blood stages; test: In vitro activity against asexual blood stages of P. falciparum, CQ-susceptible strain 3D7 (HRP2 ELISA); assay type: cell-based; details: Plasmodium falciparum, read-out: P. falciparum, IC50 ± S.E.M., CQ-Susceptible 3D7
# Description: as §2
# [7] = tested on: 3D7 P. falciparum gametocytes stages I/III; test: P. falciparum young gametocytes (stages I/III), luciferase viability; assay type: cell-based; details: Plasmodium falciparum, read-out: IC50, gametocytes of P. falciparum, Stages I/III
# Description: (§3) The activity of compounds was assessed against young gametocytes (stages I/III) and against mature gametocytes (stage V). […] A volume of 100 μL of 3D7elo1-pfs16-CBG99 gametocytes of 3D7 P. falciparum at 0.5–1% parasitemia and 2% hematocrit were dispensed. […] Luciferase activity was used to determine gametocytes viability. A volume of 100 µL of culture medium was removed from each well to increase hematocrit; 70 µL of resuspended culture was transferred to a black 96-well plate; 70 µL of D-luciferin (1 mM in citrate buffer 0.1 M, pH 5.5) was added. Luminescence measurements were performed after 10 min with 500 ms integration time. The IC50 was extrapolated from nonlinear regression analysis of the concentration–response curve.
# [8] = tested on: 3D7 P. falciparum gametocytes stage V; test: P. falciparum mature gametocytes (stage V), luciferase viability; assay type: cell-based; details: Plasmodium falciparum, 3D7, 72 h, read-out: IC50, gametocytes of P. falciparum, Stage V
# Description: as §3
# [9] = tested on: P. berghei sporozoites in Huh-7 cells; test: P. berghei hepatic stages: infection of Huh-7 cells by luciferase-expressing sporozoites; assay type: cell-based; details: Plasmodium berghei, Huh-7, 48 h, read-out: Sporozoites (Inhibition of Infection, %)
# Description: Huh-7 cells at 1.0 × 10^4 per well were seeded in 96-well plates the day before drug treatment and infection. The culture medium was replaced by infection medium (culture medium supplemented with gentamicin (50 μg/mL) and amphotericin B (0.8 μg/mL)) containing the appropriate concentration of each compound for approximately 1 h prior to infection with sporozoites of firefly luciferase-expressing P. berghei, freshly obtained through the disruption of salivary glands of infected female Anopheles stephensi mosquitoes. An amount of the DMSO solvent equivalent to that present in the highest compound concentration was used as negative control. Sporozoite addition was followed by centrifugation at 1800× g for 5 min. and parasite infection load was measured 48 h after infection by using a bioluminescence assay (Biotium, Hayward, CA, USA). The effect of the compounds on the viability of Huh-7 cells was assessed by performing the AlamarBlue (Invitrogen, Waltham, MA, USA) assay according to the manufacturer’s protocol.
# [10] = Cytotoxicity against J774 cells (CellTiter-Glo); assay type: cell-based, murine; details: mouse, J774 macrophage cells; reference drug, J774; read-out: CC50 for J774
# Description: (§4) In vitro cytotoxicity was assayed against two mammalian cell lineages, J774 (murine macrophages) and HepG2 (human hepatocellular carcinoma). […] Cell cultures from 60 to 80% confluence were trypsinized, washed in complete medium, and 4 × 10^4 cells were plated in 100 µL per well with complete medium in 96-well flat-bottom white plates for 24 h at 37 °C prior to the addition of the compounds. Triplicate aliquots of compound and the reference drugs (stock solution in DMSO) covering 7 different concentrations at 2-fold dilutions were added to the wells, and plates were incubated for 72 h more. After incubation for 72 h at 37 °C, plates were maintained at room temperature, the culture medium was removed, and 100 µL volume of CellTiter-Glo reagent was added to each well. The bioluminescence was measured using a microplate reader Filtermax F5 Multi-Mode instrument (Molecular Devices) and Softmax software. […] The selectivity index (S.I.) was estimated using the IC50s from mammalian cells divided by the IC50 obtained against the asexual blood stage P. falciparum.
# [11] = Cytotoxicity against uninfected HepG2 cells (CellTiter-Glo); assay type: cell-based; details: human, reference drug
# Description: as §4
SMILES,IC50 [1] [µM],IC50 [2] [µM],interaction with GSH [3],β-Hematin Inhibitory Activity (BHIA) Determined by IR [4],further results
"C[C@@H]1CC[C@H]2[C@@H](C)C(=O)O[C@@H]3O[C@@]4(C)CC[C@@H]1[C@]32OO4 [Artemisinin (ARS), artemisinin]",> 1000,60 ± 10,–,–,–
"CCN(CC)CCCC(C)Nc1ccnc2cc(Cl)ccc12 (centres unmarked) [Chloroquine (CQ), chloroquine]",230 ± 40,130 ± 30,neither CQ nor phenanthroline interacted with GSH,Yes,"IC50 ([5]; W2, 72 h): 0.459 ± 0.021 µM; IC50 ([6]; 3D7, 72 h): 0.018 ± 0.002 µM"
"C[C@H]1[C@@H](O)O[C@@H]2O[C@@]3(C)CC[C@H]4[C@H](C)CC[C@@H]1[C@@]24OO3 [DHA, dihydroartemisinin]",–,–,–,–,"IC50 ([7]; 3D7 strain, 72 h, mean ± S.D. of one experiment): 0.0123 ± 0.0054 µM"
"COc1cc(NC(C)CCCN)c2ncccc2c1 (centres unmarked) [Primaquine (PQ), primaquine]",> 1000,> 1000,–,No,"IC50 [8]: 43.2 ± 10.6 µM; IC50 ([5]; W2, 72 h incubation, HRP2 ELISA, mean ± S.E.M. of at least three experiments, AQ hydrochloride hydrate, PQ diphosphate, CQ diphosphate): 0.182 ± 0.016 µM; inhibition at 10 µM [9]: 52%; IC50 ([7]; 3D7, 72 h): 13.7 ± 7.6 µM; IC50 ([6]; 3D7, 72 h incubation, HRP2 ELISA, mean ± S.E.M. of at least three experiments, AQ hydrochloride hydrate, PQ diphosphate, CQ diphosphate): 1.12 ± 0.053 µM"
COc1cccc2c1C(=O)c1c(O)c3c(c(O)c1C2=O)C[C@@](O)(C(=O)CO)C[C@@H]3O[C@H]1C[C@H](N)[C@H](O)[C@H](C)O1 [doxorubicin],–,–,–,–,CC50 at 72 h [10]: 0.44 ± 0.31 µM; CC50 at 72 h [11]: < 0.12 µM
c1cnc2c(c1)ccc1cccnc12 [phenanthroline],–,–,neither CQ nor phenanthroline interacted with GSH,–,–
